Data published in patent US20250011456A1, “ANTIBODIES AGAINST CD14 AND USES THEREOF” (Villanelle Life Science Inc, priority 2023, published 2025).
Values joined by “and” are separate entries in the source; they are usually repeats but may differ in a detail not shown here. Equal values may be shown once.

Legend:
[1] = tested on: CD14 positive recurrent bladder cancer patient-derived xenograft (PDX); experiment: Anti-CD14 IgG1/IgG4 with or without cisplatin, tumor treatment in PDX mice (tumor length, width, volume, tumor weight; Example 6); type: in vivo; settings: for Tumor Length / Tumor Volume / Tumor Width: Cisplatin 4 mg/kg i.v. (C. Ex. 2), PDX mice 1-6
Text: After removing the primary tumor tissue from the patient, the tissue was temporarily placed in a complete culture medium containing RPMI1640 (Gibco Roswell Park Memorial Institute 1640 Media)+PS (penicillin and streptomycin)+10% FBS (Fetal bovine serum). The tissue was then transported to a sterile operating room within an SPF-grade (Specific Pathogen Free) animal facility. The tumor tissue was cut to an appropriate size (5 millimeters (mm) in diameter). Severely immunodeficient NSG (NOD scid gamma mouse) mice were anesthetized using an isoflurane respirator. The tumor was transplanted subcutaneously into the right rib area through surgery. When the tumor volume reached 1 cm^3, it was passaged following the same procedure, and after expanding for three generations, the tumor became stable for use in formal experiments. During the experiment, passaging and expansion were performed as needed. When the tumor volume reached 100 mm^3, the mice were divided into groups according to the experimental requirements and treated with drugs.
The IgG4 tested is the original version of Atibuclimab.
Drug administration on the PDX mice was performed intravenously.

[2] = Mouse weight under the treatment regimens of Example 6 (PDX mice); settings: Cisplatin 4 mg/kg i.v. (C. Ex. 2), PDX mice 1-6
Experimental: For these experiments, eight (8) treatment groups for PDX mice were set up: control IgG group (C.Ex. 1), single cisplatin group (4 mg/kg; C.Ex. 2), single anti-CD14-IgG1 group (5 mg/kg; Ex. 1), single anti-CD14-IgG4 (5 mg/kg; Ex. 2), combined cisplatin and anti-CD14-IgG1 group (4 mg/kg+1.5 mg/kg; Ex. 3), combined cisplatin and anti-CD14-IgG4 group (4 mg/kg+1.5 mg/kg; Ex. 4), combined cisplatin and anti-CD14-IgG1 group (4 mg/kg+5 mg/kg; Ex. 5), and combined cisplatin and anti-CD14-IgG4 group (4 mg/kg+5 mg/kg; Ex. 6). […] When cisplatin was used in these experiments, the cisplatin was used at a dose of 4 mg/kg. “C.Ex.” refers to comparative examples and “Ex.” refers to examples of embodiments of the present disclosure. The control is a non-specific IgG1 having two identical heavy chains and two identical light chains. The non-specific IgG1 has no binding affinity to the antigen.
Drug administration on the PDX mice was performed intravenously. Drug administration was performed on days 0, 4, 7, 11, 14, 18, 21, 25, and 28. Measurements of length, width, volume, and weight were performed prior to the drug administration on day 0, 4, 7, 11, 14, 18, 21, 25, and 28. The tumors were present on the skin of the mice. A ruler was used to measure the length and the width. The tumor volume was calculated by volume=½(length×width^2). The weight of the mouse was measured by placing the mouse on a scale and weighing. Tumor weight was measured by removing the tumor from the mouse and weighing on a scale.

In the case of `N.N.[Cl][Pt][Cl]` [Cisplatin, cisplatin, reference compound], the “Tumor Length” value ([1]; Day 0) is reported as 6.73 mm and 6.19 mm and 6.27 mm and 6.28 mm and 7.76 mm and 7.8 mm, the “Tumor Volume” value ([1]; Day 0) is reported as 60.66 mm^3 and 92.72 mm^3 and 86.02 mm^3 and 73.84 mm^3 and 94.74 mm^3 and 109.53 mm^3 and the “Tumor Width” value ([1]; Day 0) is reported as 4.15 mm and 5.35 mm and 5.12 mm and 4.74 mm and 4.83 mm and 5.18 mm. For the same molecule, the “Tumor Length” value ([1]; Day 4) was 6.66 mm and 6.27 mm and 5.94 mm and 5.93 mm and 6.62 mm and 5.98 mm, the “Tumor Volume” value ([1]; Day 4) was 87.83 mm^3 and 103.64 mm^3 and 106.38 mm^3 and 105.48 mm^3 and 165.90 mm^3 and 96.75 mm^3 and the “Tumor Width” value ([1]; Day 4) was 5.02 mm and 5.62 mm and 5.85 mm and 5.83 mm and 6.92 mm and 5.56 mm. For the same molecule, the “Tumor Length” value ([1]; Day 7) was 6.33 mm and 6.99 mm and 6.68 mm and 7.3 mm and 7.66 mm and 7.34 mm, the “Tumor Volume” value ([1]; Day 7) was 97.32 mm^3 and 111.46 mm^3 and 139.19 mm^3 and 144.96 mm^3 and 184.82 mm^3 and 147.18 mm^3 and the “Tumor Width” value ([1]; Day 7) was 5.42 mm and 5.52 mm and 6.31 mm and 6.16 mm and 6.79 mm and 6.19 mm. For the same molecule, the “Tumor Length” value ([1]; Day 11) was 8.7 mm and 6.68 mm and 7.84 mm and 8.41 mm and 7.57 mm and 7.94 mm, the “Tumor Width” value ([1]; Day 11) was 6.55 mm and 6.18 mm and 6.08 mm and 7.57 mm and 7.19 mm and 5.43 mm and the “Tumor Length” value ([1]; Day 14) was 7.16 mm and 8.08 mm and 7.68 mm and 8.19 mm and 9.8 mm and 9.87 mm. The “Tumor Volume” value ([1]; Day 14) was 191.56 mm^3 and 209.57 mm^3 and 206.05 mm^3 and 280.52 mm^3 and 299.36 mm^3 and 256.73 mm^3, the “Tumor Width” value ([1]; Day 14) was 7.15 mm and 7.04 mm and 7.16 mm and 8.09 mm and 7.64 mm and 7.05 mm and the “Tumor Length” value ([1]; Day 18) was 9.5 mm and 10.13 mm and 8.93 mm and 9.14 mm and 8.11 mm and 9.96 mm. For the same molecule, the “Tumor Volume” value ([1]; Day 18) was 359.20 mm^3 and 359.95 mm^3 and 306.62 mm^3 and 367.06 mm^3 and 235.57 mm^3 and 353.91 mm^3, the “Tumor Width” value ([1]; Day 18) was 8.5 mm and 8.24 mm and 8.1 mm and 8.76 mm and 7.45 mm and the “Tumor Length” value ([1]; Day 21) was 9.64 mm and 9.79 mm and 9.77 mm and 10.69 mm and 9.27 mm and 9.57 mm. For the same molecule, the “Tumor Volume” value ([1]; Day 21) was 461.07 mm^3 and 334.49 mm^3 and 398.65 mm^3 and 549.42 mm^3 and 378.25 mm^3 and 399.39 mm^3, the “Tumor Width” value ([1]; Day 21) was 9.56 mm and 8.08 mm and 8.83 mm and 9.91 mm and 8.93 mm and the “Tumor Length” value ([1]; Day 25) was 10.14 mm and 11.63 mm and 10.89 mm and 10.35 mm and 10.8 mm and 9.29 mm. For the same molecule, the “Tumor Volume” value ([1]; Day 25) was 447.20 mm^3 and 648.21 mm^3 and 545.11 mm^3 and 447.56 mm^3 and 545.04 mm^3 and 354.58 mm^3, the “Tumor Width” value ([1]; Day 25) was 9.18 mm and 10.32 mm and 9.78 mm and 9.09 mm and 9.82 mm and 8.54 mm and the “Tumor Length” value ([1]; Day 28) was 10.94 mm and 11.95 mm and 11.36 mm and 9.95 mm and 11.27 mm and 11.26 mm. For the same molecule, the “Tumor Volume” value ([1]; Day 28) was 472.03 mm^3 and 644.29 mm^3 and 617.31 mm^3 and 399.59 mm^3 and 624.50 mm^3 and 680.98 mm^3, the “Tumor Width” value ([1]; Day 28) was 9.08 mm and 10.15 mm and 10.19 mm and 8.76 mm and 10.29 mm and 10.75 mm and the “Tumor weight after 28 days” value ([1]; Cisplatin (4 mg/kg), C. Ex. 2, per mouse 1-6) was 0.556 grams and 0.459 grams and 0.538 grams and 0.669 grams and 0.566 grams and 0.419 grams. The tumor suppression rate ([1]; single cisplatin 4 mg/kg (C.Ex. 2), after 28 days, compared to the control group) was “about 50%”, the “Mouse Weight” value ([2]; Day 0) was 20.24 g and 20.99 g and 19.91 g and 20.78 g and 20.29 g and 20.61 g and the “Mouse Weight” value ([2]; Day 4) was 20.91 g and 20.32 g and 20.42 g and 20.81 g and 20.93 g and 19.35 g. For the same molecule, the “Mouse Weight” value ([2]; Day 7) was 19.77 g and 20.8 g and 21.42 g and 19.96 g and 20.93 g and 20.38 g, the “Mouse Weight” value ([2]; Day 11) was 21.17 g and 21.76 g and 20.58 g and 20.08 g and 21.59 g and 19.94 g and the “Mouse Weight” value ([2]; Day 14) was 21.09 g and 21.3 g and 21.38 g and 21.68 g and 20.56 g and 22.59 g. For the same molecule, the “Mouse Weight” value ([2]; Day 18) was 21.17 g and 21.02 g and 21.25 g and 21.23 g and 21.03 g and 21.58 g, the “Mouse Weight” value ([2]; Day 21) was 22.54 g and 22.44 g and 22.47 g and 22.85 g and 22.23 g and 22.65 g and the “Mouse Weight” value ([2]; Day 25) was 25.05 g and 24.06 g and 22.26 g and 23.7 g and 25.49 g and 22.66 g. For the same molecule, the “Mouse Weight” value ([2]; Day 28) was 24.11 g and 25.57 g and 24.32 g and 23.69 g and 24.47 g and 25.73 g.
